Measurements reported in the supplement of paper PMC11061612.

Columns and labels:
Assay in all cases: combination Emax (second highest fraction inhibited in the dose matrix, 72 h); higher = more inhibition; extreme values may be limits of the assay
[1] = tested on: HuH-7 (Hepatocellular Carcinoma)
How it was run: (§1)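 Cell lines grown in DMEM/F12 or RPMI with 10% FBS were plated in 1536-well plates and held 24 hours at 37°C, 5% CO2 before 72 hours of exposure to two-drug dose matrices, with DMSO typically at 0.2%. CellTiter-Glo 2.0 luminescence gave viability, which was converted to inhibition. Vehicle wells were set to 0 and blank wells to 1. Combination Emax is the second-highest inhibition in the matrix, and Bliss excess is the observed combination effect minus the expected EA + EB − EA·EB, where EA and EB are the single-agent effects.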

[2] = tested on: HuCCT1 (Biliary Tract Carcinoma)
How it was run: as §1

[3] = tested on: OV-56 (Ovarian Carcinoma)
How it was run: as §1

NCI-H2722 (Mesothelioma) = tested on: NCI-H2722 (Mesothelioma)
How it was run: as §1

A673 (Ewing's Sarcoma) = tested on: A673 (Ewing's Sarcoma)
How it was run: as §1

[4] = tested on: BFTC-909 (Kidney Carcinoma)
How it was run: as §1

[5] = tested on: CAL-33 (Oral Cavity Carcinoma)
How it was run: as §1

KS-1 (Glioblastoma) = tested on: KS-1 (Glioblastoma)
How it was run: as §1

MPP-89 (Mesothelioma) = tested on: MPP-89 (Mesothelioma)
How it was run: as §1

[6] = tested on: FTC-133 (Thyroid Gland Carcinoma)
How it was run: as §1

[7] = tested on: LS-123 (Colorectal Carcinoma)
How it was run: as §1

GAMG (Glioblastoma) = tested on: GAMG (Glioblastoma)
How it was run: as §1

[8] = tested on: TGBC1TKB (Biliary Tract Carcinoma)
How it was run: as §1

[9] = tested on: ESS-1 (Other Solid Carcinomas)
How it was run: as §1

[10] = tested on: HeLa (Cervical Carcinoma)
How it was run: as §1

[11] = tested on: OE21 (Esophageal Squamous Cell Carcinoma)
How it was run: as §1

[12] = tested on: SNU-16 (Gastric Carcinoma)
How it was run: as §1

EW-11 (Ewing's Sarcoma) = tested on: EW-11 (Ewing's Sarcoma)
How it was run: as §1

[13] = tested on: Detroit562 (Head and Neck Carcinoma)
How it was run: as §1

[14] = tested on: NUGC-4 (Gastric Carcinoma)
How it was run: as §1

SMILES	combination Emax [1]	combination Emax [2]	combination Emax [3]	combination Emax (NCI-H2722 (Mesothelioma))	combination Emax (A673 (Ewing's Sarcoma))	combination Emax [4]	combination Emax [5]	combination Emax (KS-1 (Glioblastoma))	combination Emax (MPP-89 (Mesothelioma))	combination Emax [6]	combination Emax [7]	combination Emax (GAMG (Glioblastoma))	combination Emax [8]	combination Emax [9]	combination Emax [10]	combination Emax [11]	combination Emax [12]	combination Emax (EW-11 (Ewing's Sarcoma))	combination Emax [13]	combination Emax [14]
C[C@@H](c1ccc2nccn2c1)n1nnc2ncc(-c3cnn(C)c3)nc21 [Savolitinib] + CC1(C)CCC(CN2CCN(c3ccc(C(=O)NS(=O)(=O)c4ccc(NCC5CCOCC5)c([N+](=O)[O-])c4)c(Oc4cnc5[nH]ccc5c4)c3)CC2)=C(c2ccc(Cl)cc2)C1 [Venetoclax] (first compound max 1 µM, 7x7, partner max 1 µM)	0.15	0.107	0.158	0.159	0.309	0.242	0.154	0.152	0.261	0.17	0.148	0.202	0.144	0.136	0.147	0.0581	0.129	0.213	0.0649	0.167
Cc1cc2ncnn2cc1Nc1ncc2c(n1)n(C1CCOCC1)c(=O)n2C [AZD7648] + O=C(c1cc(Cc2n[nH]c(=O)c3ccccc23)ccc1F)N1CCN(C(=O)C2CC2)CC1 [Olaparib] (first compound max 10 µM, 7x7, partner max 10 µM)	0.198	0.185	0.103	0.225	0.585	0.305	0.243	0.162	0.28	0.259	0.297	0.11	0.201	0.402	0.22	0.354	0.463	0.582	0.376	0.202
Cc1cc2ncnn2cc1Nc1ncc2c(n1)n(C1CCOCC1)c(=O)n2C [AZD7648] + CCN(CCO)CCCOc1ccc2c(Nc3cc(CC(=O)Nc4cccc(F)c4)[nH]n3)ncnc2c1 [AZD2811] (first compound max 10 µM, 7x7, partner max 1 µM)	0.23	0.406	0.276	0.291	0.765	0.384	0.913	0.4	0.258	0.354	0.309	0.514	0.313	0.665	0.285	0.492	0.569	0.507	0.829	0.281
COc1cc2ncnc(Nc3ccc(F)c(Cl)c3)c2cc1OCCCN1CCOCC1 [Gefitinib] + CC(C)n1c(=O)n(C)c2cnc3cc(F)c(-c4ccc(OCCCN5CCCCC5)nc4)cc3c21 [AZD1390] (first compound max 10 µM, 7x7, partner max 0.3 µM)	0.114	0.389	0.0799	0.0368	0.162	0.184	0.42	0.0732	0.112	0.0388	0.226	0.106	0.263	0.153	0.0627	0.499	0.36	0.171	0.471	0.481
Cc1nc(Nc2ncc(C(=O)Nc3c(C)cccc3Cl)s2)cc(N2CCN(CCO)CC2)n1 [Dasatinib] + CC(=O)Nc1cccc(-n2c(=O)n(C3CC3)c(=O)c3c(Nc4ccc(I)cc4F)n(C)c(=O)c(C)c32)c1 [Trametinib] (first compound max 2 µM, 7x7, partner max 1 µM)	0.662	0.772	0.446	0.487	0.237	0.35	0.629	0.641	0.851	0.261	0.928	0.476	0.715	0.776	0.241	0.723	0.532	0.157	0.862	0.431
COc1cc2c(cc1OCCCCCOc1cc3c(cc1OC)C(=O)N1C=C(C)C[C@H]1C=N3)N=C[C@@H]1CC(C)=CN1C2=O [SG3199] + O=C(c1cc(Cc2n[nH]c(=O)c3ccccc23)ccc1F)N1CCN(C(=O)C2CC2)CC1 [Olaparib] (first compound max 0.001 µM, 7x7, partner max 10 µM)	0.12	0.0094	0.131	0.134	0.563	0.0989	0.143	0.127	0.0885	0.134	0.187	0.104	0.0857	0.346	0.159	0.133	0.363	0.582	0.175	0.219
Cc1cc2ncnn2cc1Nc1ncc2c(n1)n(C1CCOCC1)c(=O)n2C [AZD7648] + C[C@@H]1COCCN1C2=NC(=NC(=C2)C3(CC3)[S@](=N)(=O)C)C4=C5C=CNC5=NC=C4 [AZD6738] (first compound max 10 µM, 7x7, partner max 10 µM)	0.215	0.735	0.734	0.347	0.809	0.835	0.793	0.595	0.564	0.677	0.619	0.681	0.526	0.971	0.575	0.74	0.984	0.748	0.848	0.509
C[C@@H](c1ccc2nccn2c1)n1nnc2ncc(-c3cnn(C)c3)nc21 [Savolitinib] + Cc1c2c(nn1C)CSCc1cc(n(C)n1)CSc1cc(c3ccccc3c1)OCCCc1c(C(=O)O)n(C)c3c-2c(Cl)ccc13 [AZD5991] (first compound max 1 µM, 7x7, partner max 1 µM)	0.207	0.117	0.151	0.2	0.302	0.179	0.181	0.132	0.237	0.176	0.211	0.167	0.159	0.16	0.362	0.355	0.947	0.491	0.26	0.221
Cc1cc2ncnn2cc1Nc1ncc2c(n1)n(C1CCOCC1)c(=O)n2C [AZD7648] + C=CCn1c(=O)c2cnc(Nc3ccc(N4CCN(C)CC4)cc3)nc2n1-c1cccc(C(C)(C)O)n1 [AZD1775] (first compound max 10 µM, partner max 1 µM)	0.252	0.692	0.307	0.327	0.594	0.619	0.864	0.425	0.559	0.633	0.641	0.706	0.335	0.974	0.636	0.673	0.885	0.599	0.704	0.359
